Experimental data taken from patent US20220411377A1, “SELECTIVE NEURONAL NITRIC OXIDE SYNTHASE INHIBITORS” (Northwestern University, priority 2019, published 2022).
Structures can show the parent of a compound that is named as a salt.

Legend:
[1] = target: rat nNOS D597N single mutant (Rattus norvegicus, UniProt P29476, D597N)
Description: (§1) Purified NOS Enzyme Assays. Rat and human nNOS, rat nNOS mutants, murine macrophage iNOS, human iNOS, and human eNOS were recombinant enzymes (expressed in E. coli and purified as reported previously).^21,50-52 To test for NOS inhibition, the hemoglobin capture assay was used to measure nitric oxide production. […] Also included were 100 μM NADPH, 0.83 mM CaCl2), approximately 320 units/mL of calmodulin, 10 μM H4B, and human oxyhemoglobin (3 μM). For iNOS, the CaCl2) and calmodulin were omitted and replaced with HEPES buffer (as neither are required for activation of iNOS). The assay was performed in 96-well plates using a Synergy 4 BioTek hybrid reader. […] Kinetic readouts were performed for 5 min. Each compound was assayed at least in duplicate, and six to nine concentrations (500 μM-50 nM or 100 μM-10 nM for eNOS and iNOS; 50 μM to 5 nM for rat and human nNOS) were used to construct concentration-response curves.

H2 receptor = H2 receptor (Homo sapiens, UniProt P25021); assay: PDSP off-target profiling, H2 receptor; assay type: binding
Excerpt: (§2) Off-Target Profiling. […] In this assay,^28 compounds were screened against a panel of 45 pharmacologically relevant CNS targets and receptors using a radioligand displacement assay.

human eNOS (heNOS) = target: T1, human eNOS (heNOS) (Homo sapiens, UniProt P29474); assay: Hemoglobin capture assay, purified human eNOS; assay type: biochemical
T1 construct: made in house; host or cells: E. coli
Description: as §1

human iNOS (hiNOS) = human iNOS (hiNOS) (Homo sapiens, UniProt P35228); settings: read-out: Ki hiNOS; Ki calculated from IC50 (Cheng-Prusoff)
Description: Human iNOS Inhibition Study.
as §1

rat nNOS (rnNOS) = target: T2, rat nNOS (rnNOS) (Rattus norvegicus, UniProt P29476); assay: Hemoglobin capture assay, purified rat nNOS; assay type: biochemical
T2 construct: made in house; host or cells: E. coli
Description: as §1

H3 receptor = H3 receptor (Homo sapiens, UniProt Q9Y5N1); assay: PDSP off-target profiling, H3 receptor
Excerpt: as §2

[2] = tested on: panel of 45 pharmacologically relevant CNS targets and receptors; settings: for PDSP binding summary: insignificant: 10 µM
Excerpt: as §2

[3] = target: rat nNOS M336V/D597N double mutant (Rattus norvegicus, UniProt P29476, D597N/M336V); settings: versus the single mutant
Description: as §1

[4] = PAMPA
Description: In this assay, an artificial membrane containing BBB phospholipids is used to assess permeability.
PAMPA-BBB Assay. The PAMPA-BBB assay was performed following a protocol described previously.^21 Briefly, the assay was performed in 10 mM phosphate-buffered saline (PBS) buffer (pH 7.5), and compounds were tested at a concentration of 200 μM. The donor plate was first coated with 4 μL of porcine brain lipid (20 mg/mL in dodecane), followed by addition of 250 μL of a test compound. The acceptor plate was filled with 250 μL of PBS, and the donor plate was carefully placed on top of the acceptor plate to make a “sandwich”. The plate was incubated at 25° C. for 17 h in a saturated humidity atmosphere with orbital agitation at 100 rpm. […] After incubation, 150 μL of the test solution was taken from each well from both sides (donor and acceptor) and transferred to the UV plate for measurement. The effective permeability (Pe) was calculated using the following equation^57
R is the retention membrane factor and was calculated using the following equation

Sequence of H3 receptor (Q9Y5N1 whole entry): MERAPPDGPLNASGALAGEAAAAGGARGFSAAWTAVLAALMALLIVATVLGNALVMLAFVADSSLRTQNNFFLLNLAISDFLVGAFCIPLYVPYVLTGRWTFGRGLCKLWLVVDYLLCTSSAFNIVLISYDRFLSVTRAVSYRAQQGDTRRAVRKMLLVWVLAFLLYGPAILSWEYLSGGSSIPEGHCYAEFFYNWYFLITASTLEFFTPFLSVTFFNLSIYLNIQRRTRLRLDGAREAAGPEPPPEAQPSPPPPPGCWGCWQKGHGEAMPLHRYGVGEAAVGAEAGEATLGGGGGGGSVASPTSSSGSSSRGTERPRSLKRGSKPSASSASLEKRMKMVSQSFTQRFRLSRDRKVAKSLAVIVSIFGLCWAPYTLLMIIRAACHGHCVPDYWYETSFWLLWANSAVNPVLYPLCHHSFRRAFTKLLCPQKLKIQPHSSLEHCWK
Sequence of H2 receptor (P25021 whole entry): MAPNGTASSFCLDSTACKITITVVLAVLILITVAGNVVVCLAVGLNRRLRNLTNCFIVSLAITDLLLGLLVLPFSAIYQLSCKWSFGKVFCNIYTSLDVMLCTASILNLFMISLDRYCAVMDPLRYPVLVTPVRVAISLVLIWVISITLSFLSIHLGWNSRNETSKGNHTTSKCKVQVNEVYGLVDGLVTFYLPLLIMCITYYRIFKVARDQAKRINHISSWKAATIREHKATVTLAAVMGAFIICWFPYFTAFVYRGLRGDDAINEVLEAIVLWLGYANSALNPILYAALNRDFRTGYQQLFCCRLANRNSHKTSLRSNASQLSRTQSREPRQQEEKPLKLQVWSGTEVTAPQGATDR

7-(3-(2-Aminoethyl)phenyl)-4-methylquinolin-2-amine Dihydrochloride [Compound 12]
ΔGbind hnNOS D597N mutant ([1]; obtained from Ki values): -7.3 kcal/mol
decrease in potency, D597N mutant ([1]; versus wild type): 8 fold
off-target binding classification, H2 receptor (H2 receptor): concerning (concerning (Ki<100 nM, or <˜2× nNOS Ki value))
Ki (human eNOS (heNOS); Ki calculated from IC50): 52.6 µM
ΔGbind WT heNOS (human eNOS (heNOS); obtained from Ki values): -4.5 kcal/mol
Ki (human iNOS (hiNOS)): 29.9 µM
% remaining at 60 min (—NADPH) (HLM without NADPH, 60 min): 87%
% remaining at 60 min (buffer) (buffer control, 60 min): 67%
t1/2 (half-life in HLM, Dihydrochloride): >1 h
CLint (in vitro intrinsic clearance, HLM): 8 mL/min/kg

Cc1cc(N)nc2cc(-c3ccc4c(c3)C(N)CC4)ccc12.Cl.Cl (racemic) [Compound 18, 7-(3-Amino-2,3-dihydro-1H-inden-5-yl)-4-methylquinolin-2-amine Dihydrochloride]
loss in rnNOS potency relative to comparator (rat nNOS (rnNOS); 6 vs 5, 15 and 18 vs 12, 17 vs 7): approximately 3 fold
Ki (rat nNOS (rnNOS); wild-type rat nNOS, Ki calculated from IC50): 0.18 µM

Cc1cc(N)nc2cc(-c3ccc(CN)cc3)ccc12.Cl.Cl [Compound 7, 7-(4-(Aminomethyl)phenyl)-4-methylquinolin-2-amine Dihydrochloride]
increase in rnNOS activity (rat nNOS (rnNOS); relative to 5): 2.3 fold

Cc1cc(N)nc2cc(-c3ccc(OCC4CC4)c(CN)c3)ccc12.Cl.Cl [Compound 29, 7-(3-(Aminomethyl)-4-(cyclopropylmethoxy)phenyl)-4-methylquinolin-2-amine Dihydrochloride]
off-target binding classification, H3 receptor (H3 receptor): concerning (concerning (Ki<100 nM, or <˜2× nNOS Ki value))

Cc1cc(N)nc2cc(-c3ccc(OCc4ccccn4)c(CN)c3)ccc12.Cl.Cl.Cl [Compound 32, 7-(3-(Aminomethyl)-4-(pyridin-2-ylmethoxy)phenyl)-4-methylquinolin-2-amine Trihydrochloride]
fraction of concerning or moderate hits [2]: 11/45
PDSP binding summary: insignificant [2]: 12

Cc1cc(N)nc2cc(-c3ccc(OCc4cccnc4)c(CN)c3)ccc12.Cl.Cl.Cl [Compound 33, 7-(3-(Aminomethyl)-4-(pyridin-3-ylmethoxy)phenyl)-4-methylquinolin-2-amine Trihydrochloride]
fraction of concerning or moderate hits [2]: 8/45
PDSP binding summary: insignificant [2]: 20
improvement in binding affinity toward heNOS (human eNOS (heNOS); 33 versus 32): 3 fold

Cc1cc(N)nc2cc(-c3ccc(OCc4cocn4)c(CN)c3)ccc12 [Compound 36, 7-(3-(Aminomethy)-4-(oxazol-4-ylmethoxy)phenyl)-4-methylquinolin-2-amine Trihydrochloride]
increased potency against the double mutant [3]: 5 fold

NCCc1ccc(O)c(O)c1 [dopamine]
prediction (CNS) [4]: CNS (−)
